Test results published in patent US10357537B2, “Cyclotides as immunosuppressive agents” (priority 2011, dated 2019).
Marks after values point to notes of the source that are not given here.

What was measured:
[1] = Relative insecticidal activity (other assays, Table 2); conditions: in vivo
PHA-L-stimulated PBMC = assay: Proliferation of PHA-L-stimulated CFSE-labelled PBMC with or without exogenous IL-2; assay type: cell-based, human; conditions: cyclotides 4 μM, CsA 5 μg/mL, 3 day culture; for proliferation with exogenous IL-2: IL-2 10 U/mL
Experimental: FIG. 13. Proliferation capacity of cyclotide-treated PBMC in the presence of exogenous IL-2. […] The cells were cultured without exogenous IL-2 (10 U/mL) (A and B) or in the presence of IL-2 (C and D). The CFSE-labelled cells were measured after a 3 day culture period by flow cytometry and representative data are presented in dot plots (A and C). Data are presented as mean and standard deviation (SD) of three independent experiments.
(§1) Following purification, PBMCs were equilibrated for 2 h at 37° C. […] This was followed by washing of each well with 100 μl PBS (centrifugation for 5 min, 1000 rpm, 20° C.) and re-suspending the cells in 100 μl medium for further assays.
Purified PBMCs (5*10^6 cells/ml) were incubated with […] of the fluorescent dye CFSE (5-carbofluoreszenein-ciacetat-succinylester) for 10 min at 37° C. The reaction was stopped using medium, cells were washed one time with medium by centrifugation (10 min, 300×g, 20° C.) and diluted with medium to 4*10^6 cells/ml.

[2] = system: IL-2 surface receptor CD25 on PBMC; assay: IL-2 surface receptor CD25 expression, FACS; assay type: cell-based, human; conditions: cyclotides 4 μM, CsA 5 μg/mL, PHA-L; stimulated untreated PBMCs = 100%
Experimental: PBMCs were isolated from blood samples of healthy adults that were provided by the transfusion center of the university hospital in Freiburg (Germany). […] The lymphocyte-enriched layer was transferred into a new vessel and washed three times with PBS and centrifuged again (10 min, twice with 300×g and last time with 800 rpm, 20° C.). For the following experiments, the cells were either stained with CFSE or diluted with medium to 4*10^6 cells/ml. Cells were counted in alight microscope using trypan blue staining and a hemocytometer.
as §1
Activated cells were transferred into a 96-well plate, centrifuged (5 min, 1000 rpm, 20° C.), washed one time with 100 μl FACS-buffer and stained with CD25 PE for 15 min at 4° C. Then cells were washed twice with FCS-buffer and resuspended in 100 μl FACS-buffer, transferred into FACS vials with a total volume of 250 μl and the expression of IL2 surface receptor CD25 was measured by FACS analysis using a FACSCalibur instrument (BD Biosciences).
Amongst other pathways, T-cell proliferation is determined by binding of the cytokine IL-2 to its cell surface receptor. Therefore the influence of cyclotides on the expression of the IL-2 receptor was tested. […] As control substance CsA was used. […] Treatment with V10A yields 114%±12.5, V10K yields 112%±16.3 and T8K yields 114%±17.3 CD25 surface expression after 24 h as compared to the control (FIG. 11B).

[3] = system: IFN-gamma production of activated PBMCs; assay: IFN-gamma secretion of PBMC, ELISA-based FACS; assay type: cell-based, human; conditions: 36 h past stimulation
Experimental: FIG. 14. IFN-γ secretion by cyclotide-treated PBMC. […] Untreated cells were used as control. Following 24 h or 36 h of cultivation, the cells were restimulated with PMA/Ionomycin for further 6 hour. The amount of IFN-γ was measured in the supernatant of cultured cells using an ELISA-based flow cytometric method. The data are presented as mean and standard deviation (SD) of three independent experiments.
Activated cells were resuspended in 50 μl of medium, transferred into a 96-well plate and treated with 10 μg/ml PHA-L. After incubation for 24 h cells were re-stimulated with PMA (50 ng/ml) und ionomycin (500 ng/ml) for 6 h. Next, the cells were transferred into Eppendorf tubes, centrifuged (5 min, 3000 RPM, 20° C.) und 50 μl of the supernatant was again transferred into new tubes and stored at −20° C. Production of cytokines was measured and quantified using the FlowCytomix™ kit according to manufacturer's instructions.
Therefore it is of interest to determine whether cyclotides only have anti-proliferative effects or also affect the effector function of T-lymphocytes, which would directly relate to changes in the IFN-gamma and TNF-alpha production. Therefore, the production of both cytokines of cyclotide-treated, activated PBMCs at an early time point after PBMC activation was tested.

[4] = Relative hemolytic activity (other assays, Table 2); assay type: cell-based; conditions: some values given for the Ala mutant
[5] = system: activated human primary PBMC; assay: Flow cytometric forward-side-scatter analysis of viability and proliferation; assay type: cell-based; conditions: extract 50-100 μg/mL; CPT 30 μg/mL
Experimental: After completion of the chemical analysis, different concentrations of the crude O. affinis cyclotide extract were tested for its anti-proliferative capacity on activated human primary PBMC (FIG. 2).

[6] = system: activated human primary PBMC; conditions: kalata B1 1.8-14 μM; CPT 30 μg/mL; melittin up to 1.6 μM
Experimental: (§2) After cultivation, the cells were assessed in bioassays as described in the text.
The levels of apoptosis were determined using the annexin V-FITC apoptosis detection kit (eBioscience, Frankfurt, Germany) according to the manufacturer's instructions. After annexin V staining, propidium iodide solution (PI; eBioscience) was added and the cells were incubated in the dark, followed by a flow cytometric analysis to determine the amount of apoptosis and necrosis. CPT (30 μg/mL) and Triton-X 100 (0.5%) was used as positive controls for apoptosis and necrosis, respectively.
Cellular apoptotic and necrotic hallmarks were measured by using inter-nucleosomal DNA fragmentation (subG1^+ cells) assay and phosphatidylserine surface analysis through a single and combinatory annexin V and propidium iodide staining. This double staining process allowed the discrimination between viable (annexin^−/PI^−), apoptotic (annexin^+/PI^− and annexin^+/PI^+) or necrotic (annexin^−/PI^+) cells.

nematodes = assay: Relative nematocidal activity (other assays, Table 2); assay type: in vivo; conditions: some cells print two values separated by a slash
[7] = system: activated human primary PBMC; assay: Anti-proliferative CFSE cell division assay on anti-CD3/CD28-activated PBMC; conditions: PBMCs, anti-CD3/28 mAbs, 72 h, cyclotides 1.8-14 μM; n.a. = not active
Experimental: Human peripheral blood mononuclear cells (PBMC) were isolated from the blood of healthy adult donors obtained from the Blood Transfusion Centre (University Medical Center, Freiburg, Germany). Venous blood was centrifuged on a LymphoPrep™ gradient (density: 1.077 g/cm^3, 20 min, 500×g, 20° C.; Progen, Heidelberg, Germany). Afterwards cells were washed twice with medium and cell viability and concentration was determined using the trypan blue exclusion test. PBMC were cultured in RPMI 1640 medium supplemented with 10% heat-inactivated fetal calf serum (PAA, Coelbe, Germany), 2 mM L-glutamine, 100 U/mL penicillin and […] (all from Invitrogen, Karlsruhe, Germany). The cells were cultured at 37° C. in a humidified incubator with a 5% CO2/95% air atmosphere. All experiments conducted on human material were approved by the Ethics committee of the University of Freiburg.
as §2
For cell proliferation and cell division tracking analysis PBMC were harvested and washed twice in cold PBS and resuspended in PBS at a concentration of 5×10^6 cells/mL. Cells were incubated for 10 min at 37° C. with carboxyfluorescein diacetate succinimidyl ester (CFSE; 5 μM: Sigma-Aldrich, Taufkirchen, Germany). The staining reaction was stopped by washing twice with complete medium. Afterwards, the cell division progress was analysed using flow cytometric analysis.
The anti-proliferative effect of cyclotide mutants/variants was tested according to Example 5. […] Afterwards the cell proliferation was assessed by analysing cell division using flow cytometric-based histogram analysis.

[8] = system: degranulation marker LAMP-1 (CD107a) on activated PBMC; assay: CD107a degranulation analysis; assay type: cell-based, human; conditions: after 36 h; T20K 4 μM, CsA 5 μg/mL
Experimental: FIG. 16. Degranulation capacity of cyclotide-treated activated human PBMC. […] After 36 hour of cultivation the cells were restimulated with PMA/Ionomycin for 2.5 hours in the presence of a CD107a mAbs and GolgiStop reagent to determine the amount of degranulation by flow cytometry. Representative data are shown in dot plots (A) and in (B) data are presented as mean and standard deviation (SD) of three independent experiments.
Activated cells were grown for 36 h and then treated for re-stimulation with PMA (50 ng/ml) und ionomycin (500 ng/ml) and stained with CD107a PE. After 1 h the reaction was stopped with 2 μl Golgi-Stop (1:10) and incubated for 2.5 h at 37° C. The cells were transferred into a 96-well plate, centrifuged (5 min, 1000 RPM, 20° C.) and washed with 100 μl FACS-buffer. Afterwards, PBMCs were stained with CD8 PE-Cy5 for 15 min at 4° C. and following to wash cycles with FACS-buffer the cells were resuspended in 100 μl, transferred into FACS vials with a total volume of 250 μl and the degranulation was measured by FACS analysis.
After determining the influence of cyclotide treatment on the effector function of PBMCs on the basis of measuring IFN-gamma and TNF-alpha cytokine levels, it is of interest to determine an effect of cyclotides on the degranulation activity. Activation of cytotoxic CD8^+-lymphocytes lead to a release of cytolytic granules, which contain/express lysosomal-associated membrane protein 1 (CD107; LAMP-1). During degranulation, the granule vesicle membranes fuse with the membranes of activated CD8^+-lymphocytes and therefore LAMP-1 can be used as a marker protein for the cytotoxic activity of T-lymphocytes, which can be measured with FACS. After 36 h, 42%±21.4 of the CsA- and 49%±16.8 of the T20K-treated cells contain the degranulation marker LAMP-1 as compared to the control (FIG. 16). This can be interpreted in the way that CsA- and T20K-treated cells have reduced cytotoxicity.

Compound	Relative activity in other assays (fold difference to kB1): insecticidal [1]	proliferation with exogenous IL-2 (PHA-L-stimulated PBMC)	proliferation as compared to the control cells, without exogenous IL-2 (PHA-L-stimulated PBMC)	CD25 expression after 48 h [2]	CD25 surface expression after 24 hours [2]	IFN-gamma production as compared to the control, 36 h [3]	Relative activity in other assays (fold difference to kB1): hemolytic [4]	dead cells / harm to cells (forward-side-scatter) [5]	induction of apoptosis [6]	Relative activity in other assays (fold difference to kB1): nematocidal (nematodes)	IC50 (μM) ± STDEV, inhibition of PBMC proliferation [7]	cells containing the degranulation marker LAMP-1 as compared to the control [8]
kalata B1 mutant GLPVCGETCAGGTCNTPGCTCSWPVCTRN (SEQ ID No. 9) [Kalata V10A]	1.1 fold difference to kB1	did not change the effect on proliferation	no effect on the proliferation	no significant change in receptorexpression	114%±12.5	did not induce significant changes in the level of IFN-gamma	0.5 fold difference to kB1					
CC[C@@]1(O)C(=O)OCc2c1cc1n(c2=O)Cc2cc3ccccc3nc2-1 [camptothecin, reference compound]								induced a high proportion of dead cells	significantly increased the fractions of these cells			
kalata B1 mutant GLPVCGEKCVGGTCNTPGCTCSWPVCTRN (SEQ ID No. 8) [Kalata B1 T8K, Kalata T8K]	0.2 fold difference to kB1	did not change the effect on proliferation	no effect on the proliferation	no significant change in receptorexpression	114%±17.3	did not induce significant changes in the level of IFN-gamma				<0.2 fold difference to kB1	not active (n.a.)^b	no influence on the degranulation activity
